Assay [1] concerns autochthonous BRAFV600E PTEN−/− melanoma model. Put plainly: Autochthonous tumor study: tumor growth, Gr-1 IHC, flow cytometry of tumor-infiltrating cells, serial biopsy qRT-PCR. The class given is in vivo, mouse. The method, then:
B6.Cg-Braf^tm1MmcmPten^tm1Hwu Tg(Tyr-cre/ERT2 H-2^b)13Bos/BosJ transgenic mice were subdermally injected with 4-Hydroxytomoxifen (4-HT) (Sigma, H6278-50MG CCF, 38.75 μg/mouse) to induce primary melanoma development at the base of the tail. Mice were randomly assigned to treatment cohorts once tumor volumes reached 64 mm^3 (19, 30, 50). Depending on the experiment, mice were treated with the following agents: CXCR2 inhibitor (AZD5069, AstraZeneca) at 100 mg/kg per os (po) twice daily, NLRP3 inhibitor (MCC950) 10 mg/kg i.p every other day, anti-PD1 ab (BioXCell) or rat IgG2a isotype control (BioXCell) at 200 μg by i.p. injection every 3 days, Dacarbazine (50 mg/kg or 75 mg/kg, Sigma-Aldrich, D2390) by i.p. injection once every other day. Melanoma growth was monitored by orthogonal caliper measurements every 3 days.
Tumors were resected and mechanically disaggregated by a gentleMACS dissociator (Miltenyi), filtered through 70-μm filters and digested with RPMI containing collagenase IV (1 mg/mL, Sigma-Aldrich), hyaluronidase (0.1 mg/mL, Sigma-Aldrich), and deoxyribonuclease (20 U/mL, Sigma-Aldrich) on a shaker at 250 rpm at 37° C. for 1 hour (23). Resected splenic and lymph node tissues were mechanically disaggregated using 1 cc syringe plunger and 40 μm filters followed by treatment with RBC lysis buffer (Sigma-Aldrich).
Paraffin-embedded tissues were processed and stained following standard protocols and imaged with a Zeiss CLSM 700 confocal microscope. The following antibodies were used in immunohistochemistry and immunofluorescence experiments: anti-Wnt5a (1 μg/ml), anti-Ly6G (0.5 μg/ml), anti-CD8a (0.5 μg/ml) and anti-CXCL5 (1 μg/ml). Tissue was permeabilized by incubation in 0.4% Triton-X in TBS for 20 min. Goat anti-rabbit conjugated to Alexa Fluor 564 and goat anti-mouse Alexa 488 were used as secondary antibodies for the appropriate primary antibody. For immunohistochemistry, anti-rat polymers were used as secondary antibodies and Warp Red chromogen detection system (BioCare, WR806S) was used for antigen visualization.
One million cells were stained with 1 μg per million cells of each fluorochrome conjugated antibodies or commercially available dyes according to the standard protocols and analyzed using a FACSCanto II or LSRII (Becton Dickinson). Cells were stained with Fc receptor blocking antibodies followed by a live/dead discriminator (CellTrace Violet, ThermoFisher, C34571), then by conjugated antibodies for 30 min at 4° C. Cell number was calculated by hemocytometer. Flow cytometry data was analyzed using Flowjo software v10.3.
Total RNA was isolated by RNeasy Plus Mini Kit (Qiagen, 74134). […] All data were normalized to Actb expression, and relative gene expression was quantitated based on the 2_DDCt method.
(In flow cytometry, cells or beads pass a laser one at a time.)

Assay [2] concerns BRAFV600E PTEN−/− melanoma cell line. The assay can be described thus: In vitro treatment of melanoma cell line followed by Western blot, qRT-PCR, IP, ASC polymerization or ELISA. It counts as cell-based, mouse. The text has this:
Braf^V600EPten^−/− (male, BPD6 (40)), Braf^V600EPten^−/−-Wnt5a^KD (40), Braf^V600EPten^−/−-CXCL5^KD, Braf^V600EPten^−/−-PDL1^KD, Braf^V600EPten^−/−-NLRP3^KD, OVA-expressing Braf^V600EPten^−/−, BRAF^V600EPTEN^−/−-STAT3^CA, and Braf^V600EPten^−/−-NTC (40) cell lines were generated using shRNA-expressing lentiviral vectors and cultured as previously described (40): shNLRP3 (Sigma, SHCLN-NM_145827), shPDL1 (Sigma, SHCLND-NM_021893), shWnt5a (Sigma, SHCLND-NM_009524), shTLR4 (Sigma, SHCLNG-NM_025817, and pLKO.1-puro empty vector control (NTC) (Sigma, SHC001). Stable cell lines were selected by puromycin resistance (Sigma-Aldrich, P8833). Murine Lewis Lung Carcinoma (LLC) cell line is from ATCC (1704526). All cell lines were tested Mycoplasma-free by Duke University Cell Culture Facility shared services. All Braf^V600EPten^−/− cell lines and the LLC cell line were maintained at 37° C. in DMEM (Invitrogen) with 2 mM L-glutamine, supplemented with 10% fetal bovine serum, 100 units/ml penicillin. Depending on the experiment, cell lines were treated with Wnt5a (100-200 ng/ml, R&D Systems/Bio-techne, 645-WN-010), IFNγ (100 ng/ml, BioAbChem, 42-IFNg), anti-PD-L1 ab (1-2 μg/ml), Hsp70 (1 μM-10 μM, Enzo, ADI-ESP-502-D), Hsp70 inhibitor (ThermoFisher, VER155008), CLI-095 TLR4 inhibitor (3 μM-10 μM, Invivogen, tlrl-cli95), TLR2-IN-C29 TLR2 inhibitor (1 μM-10 μM, Glixx, GLXC-06203), MPLA TLR4 agonist (10 μM, Enzo, ALX-581-205-C100), LPS (Lipopolysaccharide) (10 ng, Sigma-Aldrich, L4391-1MG), ATP (1 mM-5 mM, Invivogen, tlrl-atpl), MCC950 NLRP3 inhibitor (2.5 μM-10 μM, Invivogen, inh-mcc), XAV939 β-catenin inhibitor (0.5-1.0 μM, Sigma-Aldrich, X3004-5MG), 2-Aminopurine PKR inhibitor (1 mM-5 mM, Invivogen, tlrl-apr), Verteporfin YAP inhibitor (0.1 μM-1 μM, R&D Systems/Bio-techne, 530510) or vehicle control either for 24 or 48 hrs prior to in vitro and in vivo experiments. Control siRNA (Santa Cruz, sc-37007). TLR4 siRNA (SantaCruz, sc-40261).
OT-1 CD8 cell activation was performed by incubating isolated splenocytes of OT-1 transgenic mice with IL-2 (100 U/ml) and SIINFEKL peptide (1 μg/ml, New England Peptide, BP10-915) for 3 days followed by magnetic bead CD8 purification according to the manufacturer's instructions (Miltenyi biotec, 130-104-075). Activated OT-1 CD8 cells were incubated with Braf^V600EPten^−/−-OVA cells and treated with anti-PD1 ab (1 μg/ml) for 72 hrs at a tumor cell:CD8^+ T cell ratio of 1:5. In separate experiments, Braf^V600EPten^−/− cells were treated with increasing concentrations of Dacarbazine (10 μmol-400 μmol).
Tumor tissue or cells were homogenized in NP40 lysis buffer (Sigma-Aldrich) supplemented with complete protease inhibitor and phosphatase inhibitor (Roche). Cells were lysed in Laemmli sample buffer after treatment and subjected to SDS-polyacrylamide gel electrophoresis. After transferring onto PVDF membranes (Bio-Rad), monoclonal and polyclonal primary antibodies and appropriate HRP-conjugated secondary antibodies were utilized for blotting. For the immunoprecipitation assays, cells were lysed with TBS buffer (50 mM Tris-HCl (pH 7.4), 150 mM NaCl) containing 0.5% Triton X-100, EDTA-free protease inhibitor cocktail and phosphatase inhibitor cocktail, precleared with protein A/G beads, and then incubated with 1 μg of appropriate antibodies or isotype control IgG on a rotator overnight at 4° C. then incubated with protein A/G-agarose at 4° C. for 1 hour. After 5 washes with TBS buffer, immunoprecipitated complexes were eluted in sample buffer by boiling and subjected to immunoblot analysis. Immunoblots were visualized by chemiluminescence substrate (ThermoFisher) and imaged by a ChemiDoc XRSplus system (BioRad). For the ASC polymerization assay, cells were lysed with TBS buffer containing 0.5% Triton X-100, EDTA-free protease inhibitor cocktail and phosphatase inhibitor cocktail. The lysates were centrifuged at 4,000 g at 4° C. for 15 min. […]
Background: A western blot detects proteins with antibodies after separation by electrophoresis.

Assay [3] relates to WM266 human melanoma cell line. The assay can be described thus: In vitro treatment of human melanoma cell line followed by Western blot. The class given is cell-based. The settings on record: with or without TLR4 inhibitor; in a TLR4-dependent manner. An excerpt: FIG. 7A-G. The PD-L1/NLRP3/HSP70 PMN-MDSC adaptive recruitment pathway in human melanoma. (A) Supernatant HSP70 and caspase-1 p20 Western blot analysis following treatment of human WM266 melanoma cells with IFN-γ with or without anti-PD-L1 Ab. Blots are representative of 3 independent experiments. (B) Wnt5A Western blot analysis of HSP70-treated human WM266 melanoma cells with or without TLR4 inhibitor. Blots are representative of 3 independent experiments. (C) HSP70 and caspase-1 p20 Western blot analysis following treatment of human WM266 melanoma cells with ATP in the absence and presence of MCC950. Blots are representative of 2 independent experiments. (D) Cytolytic T cell markers correlated with ITGAM (CD11B), CD33, and NLRP3 gene expression in the melanoma TCGA-SKCM database. (E) RNA-Seq analysis of human melanoma tissue specimens collected before anti-PD-1 Ab therapy and at the time of disease progression on anti-PD-1 Ab therapy. TPM, transcripts per million. (F) Plasma HSP70 ELISA at week 0 and week 12 in patients with advanced melanoma undergoing anti-PD-1 Ab immunotherapy. (G) Change in HSP70 plasma levels following anti-PD-1 Ab immunotherapy in patients with advanced melanoma who were responders (R) or nonresponders (NR). The response was based on week-12 CT imaging. HSP70 changes were normalized to target tumor burden based on week-12 CT imaging. […]

Setting [4] is: CXCR2 inhibitor 100 mg/kg po twice daily combined with anti-PD-1 Ab.

In the case of `C[C@@H](Oc1cc(NS(=O)(=O)N2CCC2)nc(SCc2cccc(F)c2F)n1)[C@@H](O)CO` [AZD5069], in assay [1] (setting [4]), the “CD8+ T cell tumor infiltration” value was “enhanced”, the “PMN-MDSC recruitment in response to anti-PD-1 Ab therapy” value was “significantly suppressed” and the tumor progression result was “suppressed”. In addition, in assay [1] (correlating with the period of PMN-MDSC influx into the tumor), the “time dependence of impact on tumor volume change rate” value was “more significant at later time points”.

“HSP70: recombinant HSP70 (1 μM-10 μM, Enzo, ADI-ESP-502-D)”: the “receptor dependence of HSP70 stimulation of Wnt5a expression” value in assay [2] (pharmacologic inhibitor and shRNA silencing studies) is listed as “TLR4 dependent”. In addition, in assay [2] (titrated concentrations, in a dose-dependent manner), the “Wnt5a expression after HSP70 stimulation (Western blot)” value is given as “induced upregulation”. The “Wnt5a upregulation by HSP70” value in assay [3] is listed as “induced”.

In the case of “IL-1β: recombinant IL-1β at titrated concentrations”, the “induction of Wnt5a expression by tumor cells” value in assay [2] (titrated concentrations of recombinant IL-1β) was “no evidence”.

B1: rWnt5a: recombinant Wnt5a (100-200 ng/ml, R&D Systems/Bio-techne, 645-WN-010) (protein, UniProt P41221 62-380, looked up)
Protein Wnt-5a: IIGAQPLCSQLAGLSQGQKKLCHLYQDHMQYIGEGAKTGIKECQYQFRHRRWNCSTVDNTSVFGRVMQIGSRETAFTYAVSAAGVVNAMSRACREGELSTCGCSRAARPKDLPRDWLWGGCGDNIDYGYRFAKEFVDARERERIHAKGSYESARILMNLHNNEAGRRTVYNLADVACKCHGVSGSCSLKTCWLQLADFRKVGDALKEKYDSAAAMRLNSRGKLVQVNSRFNSPTTQDLVYIDPSPDYCVRNESTGSLGTQGRLCNKTSEGMDGCELMCCGRGYDQFKTVQTERCHCKFHWCCYVKCKKCTEIVDQFVCK
Take B1: in assay [2] (BRAFV600E PTEN−/− Wnt5aKD cells, qRT-PCR), the “diminished CXCL5 expression of Wnt5a-knockdown cell line after addition of rWnt5a” value is on record as “rescued”. In assay [2] (rWnt5a at various time points), the “YAP stabilization (Western blot)” value is recorded as “induced”. Besides, the “Cxcl2, Cxcl5 and Cxcl1 gene expression (qRT-PCR)” value in assay [2] (rWnt5a versus vehicle control) was “induced”. In assay [2] (rWnt5a, in a YAP-dependent manner), the “CXCL5 expression (Western blot)” value is listed as “stimulating”.

For the origin of these results see patent US12121565B2, “Methods of treatment of specific cancers with NLRP3 inhibitors and anti-PD1/PD-L1 antibodies” (Duke University, priority 2019, dated 2024).
